These results are taken from patent publication US20010031469A1, “Methods for the detection of modified peptides, proteins and other molecules” (priority 2000, published 2001).

The subject of the assay is HEK293 cell lysates after 5 minutes serum stimulation. Briefly: Tagged substrates array: in vitro protein kinase reaction of the tagged peptide mix with cell lysate, sorted on tag array, anti-pTyr immunostaining. Type of assay: biochemical. As to conditions: Hundred micrograms of total cell lysate, 30 minutes at 37 degree Celsius; anti-pTyr monoclonal antibody mix, Cy5 secondary, GenePix scanner. As to the method:
EDC/NHS combined cross-linking was performed to tag the peptide or substrate which needs to be sorted. Coupling buffer contains no Tris and no phosphate. Peptides and oligonucleotides in equimolar ratios [50 μg/ml in 10 mM sodium acetate buffer (pH 5.0)] were reacted with a 1:1 mixture of N-hydroxysuccinimide NHS and 1 -ethyl-3 -(3 -dimethylaminopropyl) carbodiimide EDC for 2 hours. The excess active groups were then blocked with 1 M ethanolamine (pH 8.5).
Peptides. Phosphotyrosine-containing and non-phosphorylated peptides were synthesized, HPLC purified and checked by mass spectroscopy. Peptides were stored under nitrogen at -80 degree. Celsius. The synthesized peptides were as following, phosphotyrosine, AEPDpYGALYE PLCgamma, SAAPpYLKTK Stat3-705, DDPSpYVNVQ SHC-317, PDHQpYYNDF SHC-239, TDDGpYMPMS IRS 1-608, GNGDpYMPMS IRS 1-628, SPGEpYVNIE IRS 1-895, KSLNpYIDLD IRS 1-1172, DLSTpYASIN IRS1-1222; non-phosphorylated, AEPDYGALYE, SAAPYLKTK, DDPSYVNVQ and PDHQYYNDF SHC, KDGATMKTF Akt, RGRSRSAPPN BAD, GEGTYGVVYK p34cdc2, GAGTPAATDEK, DGFVLTRLLE beta spectrin, NSIMKCDIDI Gamma actin, PGIADRMQKE beta actin.
Amino modified oligonucleotides used as tags. The amino modifications can be used either for slides coupling or for peptide coupling, or for coupling to any reactive substrates which needs to be sorted onto the array. Oligonucleotides are chosen with similar Tm and hybridization properties. Oligonucleotides can be substituted by any pair of complementary nucleic acids or PNAs without affecting the sensitivity or completeness of the assay. The length and sequence of the nucleic acids or PNAs is also not important as long as strands complementarity results in hibridization specificity. Here it is described a test experiment with 18 pairs of oligonucleotides. […]
Slide Overlay. […] After triple washing in TBST, and then TBS, fluorescent complexes are detected by using a GenePix microarrays scanner. […]
As to AEPDYGALYE [Substrate S1], the “phosphorylation of sorted tagged substrate (FIG. 10)” value (“phosphorylation” below) is “moderately well phosphorylated”. As for PDHQYYNDF [Substrate S4], the “phosphorylation” value is listed as “strongly phosphorylated”. Take SAAPYLKTK [Substrate S2]: the “phosphorylation” value is on record as “moderately well phosphorylated”.
